According to US9556158B2, “Fungicidal 3-[(pyridin-2-ylmethoxyimino)(phenyl)methyl]-2-substituted-1,2,4-oxadiazol-5(2H)-one derivatives” (BAYER INTELLECTUAL PROPERTY GMBH, priority 2011, dated 2017):

How the values were obtained:
Phytophthora infestans [1] = type: in vivo; conditions: 100 ppm of active ingredient, preventive spray, inoculation one day after treatment, evaluated 7 days after inoculation
[2] = pH 2.7, LogP, HPLC on reversed phase columns, pH 2.7, 0.1% formic acid in water / acetonitrile gradient
Method: Measurement of log P values was performed according EEC directive 79/831 Annex V.A8 by HPLC (High Performance Liquid Chromatography) on reversed phase columns with the following method:
Measurement of LC-MS was done at pH 2.7 with 0.1% formic acid in water and with acetonitrile (contains 0.1% formic acid) as eluent with a linear gradient from 10% acetonitrile to 95% acetonitrile.
Calibration was done with not branched alkan2-ones (with 3 to 16 carbon atoms) with known log P-values (measurement of log P values using retention times with linear interpolation between successive alkanones). lambda-maX-values were determined using UV-spectra from 200 nm to 400 nm and the peak values of the chromatographic signals.

Plasmopara viticola = assay: Example I: in vivo preventive test on Plasmopara viticola (grapevine); conditions: 144 h, 10 ppm of active ingredient, preventive spray on young plants, evaluated 6 days after inoculation, read-out: Eff. %
Method: In Vivo Preventive Test on Plasmopara viticola (Grapevine)
To produce a suitable preparation of active compound, 1 part by weight of active compound is mixed with the stated amounts of solvent and emulsifier, and the concentrate is diluted with water to the desired concentration.
To test for preventive activity, young plants are sprayed with the preparation of active compound at the stated rate of application. After the spray coating has dried on, the plants are inoculated with an aqueous spore suspension of Plasmopara viticola and then remain for 1 day in an incubation cabinet at approximately 20° C. and a relative atmospheric humidity of 100%. The plant is subsequently placed for 4 days in a greenhouse at approximately 21° C. and a relative atmospheric humidity of approximately 90%. The plants are then misted and placed for 1 day in an incubation cabinet.
The test is evaluated 6 days after the inoculation. 0% means an efficacy which corresponds to that of the untreated control, while an efficacy of 100% means that no disease is observed.

Pyricularia oryzae = assay: whole plant or invertebrate; type: in vivo; conditions: 144 h, read-out: % efficacy
Phytophthora infestans [3] = assay: whole plant or invertebrate; type: in vivo; conditions: in Solanum lycopersicum, 120 h, read-out: % efficacy
Botrytis cinerea = assay: Example B: in vivo preventive test on Botrytis cinerea (grey mould); conditions: 500 ppm, preventive spray on gherkin plants, contamination after 24 hours, grading 4 to 5 days after contamination vs control plants
Method: In Vivo Preventive Test on Botrytis Cinerea (Grey Mould)
The active ingredients tested are prepared by homogenization in a mixture of acetone/tween/DMSO and then diluted with water to obtain the desired active material concentration.
Gherkin plants (“Vert petit de Paris” variety), sown in starter cups on a 50/50 peat soil-pozzolana substrate and grown at 24° C., are treated at the Z11 cotyledon stage by spraying with the active ingredient prepared as described above. Plants, used as controls, are treated with the mixture of acetone/tween/DMSO/water not containing the active material.
After 24 hours, the plants are contaminated by spraying the cotyledons with an aqueous suspension of cryopreserved Botrytis cinerea spores (50 000 spores per ml). The spores are suspended in a nutrient solution composed of 10 g/L of PDB, 50 g/L of D-Fructose, 2 g/L of NH4NO3 and 1 g/L of KH2PO4. The contaminated gherkin plants are incubated at 17° C. and at 90% relative humidity.
Grading (% of efficacy) is carried out 4 to 5 days after the contamination, in comparison with the control plants.
(§1) Under these conditions, good (at least 70%) or total protection is observed at a dose of 500 ppm with the following compounds: […]

Puccinia recondita = assay: Example E: in vivo preventive test on Puccinia recondita (brown rust on wheat); conditions: 500 ppm, preventive spray on wheat plants, contamination after 24 hours, grading 12 days after contamination vs control plants
Method: In Vivo Preventive Test on Puccinia recondita (Brown Rust on Wheat)
(§2) The active ingredients tested are prepared by homogenization in a mixture of acetone/tween/DMSO, and then diluted with water to obtain the desired active material concentration.
Wheat plants (“Scipion” variety), sown in starter cups on a 50/50 peat soil-pozzolana substrate and grown at 22° C., are treated at the 1-leaf stage (10 cm height) by spraying with the active ingredient prepared as described above. Plants, used as controls, are treated with the mixture of acetone/tween/DMSO/water not containing the active material.
(§3) After 24 hours, the plants are contaminated by spraying the leaves with an aqueous suspension of Puccinia recondita spores (100 000 spores per ml). The spores are collected from an infected plant and are suspended in water containing 2.5 ml/l of Tween 80 at 10%. The contaminated wheat plants are incubated for 24 hours at 20° C. and at 100% relative humidity, and then for 10 days at 20° C. and at 70-80% relative humidity.
Grading (% of efficacy) is carried out 12 days after the contamination, in comparison with the control plants.
as §1

Uromyces appendiculatus = assay: Example C: in vivo preventive test on Uromyces appendiculatus (bean rust); conditions: 500 ppm, preventive spray on bean plants, contamination after 24 hours, grading 11 days after contamination vs control plants
Method: In Vivo Preventive Test on Uromyces appendiculatus (Bean Rust)
as §2
Bean plants (“Saxa” variety), sown in starter cups on a 50/50 peat soil-pozzolana substrate and grown at 24° C., are treated at the 2-leaf stage (9 cm height) by spraying with the active ingredient prepared as described above. Plants, used as controls, are treated with the mixture of acetone/tween/DMSO/water not containing the active material.
as §3, with “of Uromyces appendiculatus” for “of Puccinia recondita”, “spores (150” for “spores (100”, “from” for “from an”, “infected plants” for “infected plant”, “contaminated bean” for “contaminated wheat”
Grading (% of efficacy) is carried out 11 days after the contamination, in comparison with the control plants.
as §1

Pyrenophora teres = assay: Example D: in vivo preventive test on Pyrenophora teres (net blotch on barley); conditions: 500 ppm, preventive spray on barley plants, contamination after 24 hours, grading 14 days after contamination vs control plants
Method: In Vivo Preventive Test on Pyrenophora teres (Net Blotch on Barley)
as §2
Barley plants (“Plaisant” variety), sown in starter cups on a 50/50 peat soil-pozzolana substrate and grown at 22° C., are treated at the 1-leaf stage (10 cm height) by spraying with the active ingredient prepared as described above. Plants, used as controls, are treated with the mixture of acetone/tween/DMSO/water not containing the active material.
After 24 hours, the plants are contaminated by spraying the leaves with an aqueous suspension of Pyrenophora teres spores (12 000 spores per ml). The spores are collected from a 12-day-old culture. The contaminated barley plants are incubated for 48 hours at 20° C. and at 100% relative humidity, and then for 12 days at 20° C. at 70-80% relative humidity.
Grading (% of efficacy) is carried out 14 days after the contamination, in comparison with the control plants.
as §1

SMILES	Eff. % (Phytophthora infestans [1])	chromatographic logP [2]	pest or weed control at 10 ppm (Plasmopara viticola)	pest or weed control at 500 ppm (Pyricularia oryzae)	pest or weed control at 500 ppm (Phytophthora infestans [3])	% efficacy (Botrytis cinerea)	% efficacy (Puccinia recondita)	% efficacy (Uromyces appendiculatus)	% efficacy (Pyrenophora teres)
C#CCCOC(=O)Nc1cccc(CO/N=C(/c2ccccc2)c2nc(=O)on2C)n1 [Example 1, but-3-yn-1-yl {6-[({[(Z)-(2-methyl-5-oxo-2,5-dihydro-1,2,4-oxadiazol-3-yl)(phenyl)methylene]amino}oxy)methyl]pyridin-2-yl}carbamate]	98%	2.71	99%	–	–	–	–	–	–
Cn1oc(=O)nc1/C(=N\OCc1cccc(NC(=O)OC(C)(C)C)n1)c1ccccc1 [Example 2, tert-butyl {6-[({[(Z)-(2-methyl-5-oxo-2,5-dihydro-1,2,4-oxadiazol-3-yl)(phenyl)methylene]amino}oxy)methyl]pyridin-2-yl}carbamate]	100%	3.31	100%	–	–	–	–	–	–
Cn1oc(=O)nc1C(=NOCc1cccc(NCC2CCCCC2)n1)c1ccccc1 [Example 4]	95%	2.44	94%	–	–	–	–	–	–
CCCCCCNc1cccc(CON=C(c2ccccc2)c2nc(=O)on2C)n1 [Example 5]	95%	2.2	96%	–	–	–	–	–	–
CCCCOCCNc1cccc(CON=C(c2ccccc2)c2nc(=O)on2C)n1 [Example 6]	95%	2.13	–	–	–	–	–	–	–
Cn1oc(=O)nc1C(=NOCc1cccc(NCCc2ccccc2)n1)c1ccccc1 [Example 7]	95%	2.23	96%	–	–	–	–	–	–
Cn1oc(=O)nc1C(=NOCc1cccc(NC(=O)c2cccc(F)c2)n1)c1ccccc1 [Example 10]	–	3.11	–	79%	99%	71%	–	–	–
COc1ccc(CC(=O)Nc2cccc(CON=C(c3ccccc3)c3nc(=O)on3C)n2)cc1 [Example 16]	–	2.92	94%	–	100%	–	89%	81%	–
C#CCC(C)(C)OC(=O)Nc1cccc(CO/N=C(/c2ccccc2)c2nc(=O)on2C)n1 [Example 35, 2-methylpent-4-yn-2-yl {6-[({[(Z)-(2-methyl-5-oxo-2,5-dihydro-1,2,4-oxadiazol-3-yl)(phenyl)methylene]amino}oxy)methyl]pyridin-2-yl}carbamate]	–	3.31	100%	–	100%	90%	–	–	–
COc1cccc(C(=NOCc2cccc(NC(=O)COc3ccccc3)n2)c2nc(=O)o[nH]2)c1 [Example 45]	–	3.17	–	–	88%	–	–	–	71%
Cc1cccc(C(=NOCc2cccc(NC(=O)COc3ccccc3)n2)c2nc(=O)on2C)c1 [Example 55]	–	3.39	–	83%	100%	85%	–	–	–
